The source of these data is patent publication US9757375B2, “Compounds that inhibit human DNA ligases and methods of treating cancer” (University of Maryland, Baltimore, priority 2007, dated 2017).

Experiment [1] relates to Human DNA ligases I, III and IV and T4 DNA ligase. Put plainly: Step 3 of the ligation reaction: ligation of preadenylated nick by non-adenylated ligase. It is filed as biochemical. As to conditions: for Mechanism: ligation step inhibited (3rd step): Table 5A. As for the experimental part: To analyze step 3 of the ligation reaction, an adenylated labeled version of the 18-mer was prepared as described (24). The DNA substrate containing a preadenylated nick (0.5 pmol) and hLigI (0.05 pmol), hLigIIIβ (0.05 pmol), hLigIV/XRCC4 (0.1 pmol), or T4 DNA ligase (0.05 pmol) were incubated in ligation buffer without ATP, either in the presence or absence of the ligase inhibitors (100 μmol/L). Reactions were stopped by the addition of an equal volume of gel loading dye (95% formamide, 0.05% bromophenol blue, and 0.05% xylene cyanol). After heating at 95° C. for 5 min, DNA was separated by denaturing polyacrylamide gel electrophoresis. Labeled oligonucleotides were detected and quantitated in the dried gel by phosphorImager analysis (Molecular Dynamics).
Since the final two steps of the ligation reaction involve interactions with DNA, we examined the effects of the ligase inhibitors on the second (FIG. 3B) (The labeled ligase-adenylate form of human DNA ligases I, III and IV and T4 DNA ligase were incubated with a linear DNA substrate containing a single non-ligatable nick in the absence or presence of compounds 67, 82 and 189 (100 μM). After separation by denaturing gel electrophoresis, the labeled DNA-AMP complex was detected by phosphorimaging (26)) and third steps (FIG. 3C) of the ligation reaction using established assays (25,26) (Non-adenylated human DNA ligases I, III and IV and T4 DNA ligase were incubated with labeled DNA-AMP in the absence or presence of compounds 67, 82 and 189 (100 μM). After separation by denaturing gel electrophoresis, labeled ligated DNA was detected by phosphorimaging (25)).

The next experiment has as its system HeLa cell extract. Briefly: Cell extract assay of short patch base excision repair (incised AP site). As to conditions: 100 μmol/L (also 25 μM in the source), FIG. 4B. It is filed as biochemical, human. As for the experimental part:
Extracts were prepared from human cervical cancer HeLa cells as described previously (27, 31). For base excision repair (BER) assays, the extraction buffer contained 100 mmol/L of KCl, whereas for nonhomologous end-joining (NHEJ) assays, extraction buffer contained 400 mmol/L of KCl. Where indicated, DNA ligases were immunodepleted from the extracts as described (32) using protein A or G Sepharose beads (GE Healthcare) and anti-Lig1, anti-LigIII (GeneTex), or anti-LigIV (ABCAM) antibodies. Depletion was confirmed by immunoblotting.
A labeled 5′-flap substrate (0.1 pmol; (31)) was incubated with 20 μg of extract in the absence or presence of ligase inhibitors (100 μmol/L) at 25° C. for 5 min in ligation buffer (final volume, 50 μL). For short patch BER, a linear duplex containing a single uracil residue was preincised by treatment with uracil DNA glycosylase and APE1 (both from NEB) to generate a strand break with 3′ hydroxyl and 5′ deoxyribose phosphate termini. Reactions (50 μL) containing 0.3 pmol of the incised DNA substrate, 10 μCi of [α^32P]dTTP, and 20 μg of extract either in the absence or presence of ligase inhibitors (100 μmol/L) were incubated at 25° C. for 2 min in ligation buffer. After separation by denaturing polyacrylamide gel electrophoresis, labeled oligonucleotides were detected in the dried gel by phosphorImager analysis (Molecular Dynamics).
A natural AP site within a linear DNA molecule (FIG. 4B) is repaired primarily by short patch base excision repair that is completed by DNA ligase 111 (15). FIG. 4B, the linear DNA substrate with an incised AP site (0.3 pmol) was incubated with a cell extract (20 μg) and [a32P]dTTP in the absence (lane 1, Mock) or presence of 100 μmol/L of L189 (lane 2), L67 (lane 3), or L82 (lane 4). hLigI (lane 5, I-dp) and hLigIIIα (lane 6, III-dp) were immunodepleted from the cell extracts prior to incubation with the DNA substrate. […] After separation by denaturing gel electrophoresis, labeled fragments corresponding to a single nucleotide insertion and fully repaired product were detected by phosphorimaging (16). […]

For a further experiment, the system named is MCF10A cells. Briefly: MTT cell growth assay. It is filed as cell-based, human. As to conditions: for IC50: Homo sapiens, MCF-10A. An outline of the steps:
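Seeded at 300 cells/well and allowed to adhere overnight, then serial compound dilutions in medium added for 5 days. MTT added for a further 4 h, formazan dissolved in isopropanol, and absorbance read at 560 nm.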
For orientation: Tetrazolium assays rely on reduction of a dye to a coloured formazan, in cell work by metabolically active cells.

Another experiment deals with HCT116 cells. Briefly: MTT cell growth assay. The conditions noted are these: for IC50: Homo sapiens. It is filed as cell-based, human. The method in brief: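 HCT116 cells (1200 per well) adhered overnight, then were exposed to serially diluted compounds for 5 days. MTT was added for 4 h, formazan dissolved in isopropanol and absorbance read at 560 nm as the growth measure.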

In another experiment the test system is HCT116 and MCF10A cells. Put plainly: Cell proliferation screen, result stated for one or both cell lines. It is filed as cell-based. As to conditions: Homo sapiens, read-out: IC50 of inhibition of proliferation.
Where [2] appears, read: cell growth, compound alone, read-out: IC50 (μM) MCF10A.
Setting [3] is: sections 'high concentrations (~50 μM)' and 'active in vitro that decreased cell growth', same figures given in μM elsewhere in Table 6, read-out: IC50 MCF10A (head without unit).
The mark [4] stands for this setting: HCT-116, cell growth, compound alone, read-out: IC50 (μM) HCT116.
The mark [5] stands for this setting: HCT-116, sections 'high concentrations (~50 μM)' and 'active in vitro that decreased cell growth', same figures given in μM elsewhere in Table 6, read-out: IC50 HCT116 (head without unit).

Like-named read-outs stand apart in the source and are kept apart here.

On to `O=c1[nH]ncc(N/N=C\c2ccc(O)c([N+](=O)[O-])c2)c1Cl` [Compound 82], for which the “inhibition of step 3 of the ligation reaction” value in experiment [1] (100 μM, FIG. 3C) was “inhibit step 3”. Also, the “Mechanism: ligation step inhibited (3rd step)” value in experiment [1] was 3rd step. The “repair of the natural AP site (short patch base excision repair)” value (“repair of the natural AP site” below) in the experiment on HeLa cell extract is “has no effect”.

As for `O=C(O)CSc1cc(Cl)c2nonc2c1[N+](=O)[O-]` [Compound 64], the IC50 in the experiment with MCF10A cells (setting [2]) and with MCF10A cells (setting [3]) was 50 µM throughout. In addition, in the experiment with MCF10A cells (MCF10A cells, 3 aminobenzamide 2 mM, 5 days, MTT, FIG. 5B), the “potentiation of the growth inhibitory effect of 3 aminobenzamide” value is given as “markedly potentiates”.

`O=C(Cn1cnc([N+](=O)[O-])n1)N/N=C/c1ccc(O)cc1O` [Compound 151]: the IC50 in the experiment with HCT116 cells (setting [4]) is 22 µM; with HCT116 cells (setting [5]), 22 µM; in the experiment with MCF10A cells (setting [2]), 6 µM; in the experiment on MCF10A cells (setting [3]), 6 µM; in the experiment with HCT116 and MCF10A cells it was under 20 µM.

As for `Nc1nc(S)nc(O)c1/N=C/c1ccccc1` [Compound 189], the “Mechanism: ligation step inhibited (3rd step)” value in experiment [1] is recorded as 3rd step. For the same molecule, the “repair of the natural AP site” value in the experiment on HeLa cell extract is reported as “reduce repair of the natural AP site”.

`Cc1c(Br)cc(NCC(=O)N/N=C\c2cc([N+](=O)[O-])ccc2O)cc1Br` [Compound 67]: the “Mechanism: ligation step inhibited (3rd step)” value in experiment [1] amounted to 3rd step. Besides, the “repair of the natural AP site” value in the experiment with HeLa cell extract was “reduce repair of the natural AP site”. Also, the IC50 with HCT116 cells (setting [4]) was 8 µM; in the experiment with HCT116 cells (setting [5]) it was 8 µM; in the experiment on MCF10A cells (setting [2]), 4 µM; with MCF10A cells (setting [3]) it was 4 µM; in the experiment on HCT116 and MCF10A cells, under 20 µM.

Regarding `Cc1oc(C(=O)O)cc1CSCc1cc(C(=O)O)c(C)o1` [Compound 197], the “Mechanism: ligation step inhibited (3rd step)” value in experiment [1] stood at 3rd step.

Turning to `CS(=O)(=O)NNC(=O)C(=O)NNc1ccccc1` [Compound 184], the “inhibition of cell proliferation of HCT116 at 50 μM (MTT)” value in the experiment on HCT116 cells (50 μM, numbers printed under HCT116 in r92-r106: 16, 64, 124, 130, 165, 184 (30%), 195, 197, 198, 212) was 184 (30%).

On to `O=C(c1ccc(O)cc1)c1ccccc1O` [Compound 200], for which the IC50 was about 10 µM with HCT116 cells (setting [4]), 10 to 150 µM with HCT116 cells (setting [5]), about 5 µM in the experiment on MCF10A cells (setting [2]) and 10 to 150 µM in the experiment on MCF10A cells (setting [3]).

In the case of `O=C1Nc2ccccc2Oc2cc([N+](=O)[O-])cc([N+](=O)[O-])c21` [Compound 180], the IC50 with HCT116 cells (HCT-116, read-out: IC50 HCT116 (head without unit)) was 3 µM; in the experiment on HCT116 cells (setting [4]), 12 µM; in the experiment with MCF10A cells (setting [2]), 3 µM; with MCF10A cells (setting [3]), 3 µM; in the experiment with HCT116 and MCF10A cells it was under 20 µM.
